# Test results as given in US20110039825A1, “LIGANDS OF ALPHA-ADRENOCEPTORS, DOPAMINE, HISTAMINE, IMIDAZOLINE AND SEROTONIN RECEPTORS AND THEIR USE” (Alla Chem, LLC, priority 2007, published 2011).
# How the values were obtained:
# [1] = molecular target: T1, recombinant human 5-HT6 receptor (Homo sapiens, UniProt P50406); experiment: radioligand binding to serotonin receptor 5-HT6 ([3H] Lysergic acid diethylamide); conditions: 10 μM ligand
# T1 construct: expressed in transfected cells; host or cells: HeLa
# Description: Mol. Pharmacol. 43:320-327, 1993]. […] Methiothepin is used as positive control.
# human 5-HT7 receptor = molecular target: T2, human 5-HT7 receptor (Homo sapiens, UniProt P34969); experiment: radioligand binding to serotonin receptor 5-HT7 ([3H] Lysergic acid diethylamide); conditions: 10 μM ligand
# T2 construct: expressed in transfected cells; host or cells: CHO
# Description: For this purpose sDNA of human 5-HT7 receptor is expressed in CHO cells as it was described in [Shen Y, Monsma F J Jr, Metcalf M A, Jose P A, Hamblin M W, and Sibley DR. […] J. Biol. Chem. 1993, 268, 18200-18204]. […] J. Pharmacol. Exp. Ther. 1994, 268:1403-1410]. […] Methiothepin is used as positive control.
# recombinant human 5-HT1A = molecular target: T3, recombinant human 5-HT1A (Homo sapiens, UniProt P08908); experiment: radioligand binding to serotonin receptor 5-HT1A ([3H] 8-OH-DPAT); conditions: 10 μM ligand
# T3 construct: expressed in transfected cells; host or cells: CHO
# T3 sequence (P08908 1-422): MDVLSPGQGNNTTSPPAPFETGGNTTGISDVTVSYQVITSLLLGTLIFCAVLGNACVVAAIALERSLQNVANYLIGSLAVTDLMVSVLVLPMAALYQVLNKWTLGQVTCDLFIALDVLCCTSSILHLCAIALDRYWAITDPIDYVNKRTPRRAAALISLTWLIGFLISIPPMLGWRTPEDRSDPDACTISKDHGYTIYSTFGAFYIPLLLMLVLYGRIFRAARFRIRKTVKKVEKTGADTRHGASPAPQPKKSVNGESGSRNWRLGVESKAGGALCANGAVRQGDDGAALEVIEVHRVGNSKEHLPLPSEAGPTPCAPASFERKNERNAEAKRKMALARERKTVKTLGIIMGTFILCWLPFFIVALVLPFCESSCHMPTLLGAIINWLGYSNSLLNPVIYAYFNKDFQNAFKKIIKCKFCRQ
# Description: J Pharmacol Exp Ther. 306(1): 301-309, 2003]. […] Metergoline is used as positive control.
# [2] = molecular target: T4, recombinant human 5-HT2B receptor (Homo sapiens, UniProt P41595); experiment: radioligand binding to serotonin receptor 5-HT2B ([3H] Lysergic acid diethylamide); conditions: 10 μM ligand
# T4 construct: expressed in transfected cells; host or cells: CHO-K1
# [3] = molecular target: T5, recombinant human 5-HT2C receptor (Homo sapiens, UniProt P28335); experiment: radioligand binding to serotonin receptor 5-HT2C ([3H] Mesulergine); conditions: 10 μM ligand
# T5 construct: expressed in transfected cells; host or cells: CHO-K1
# T5 sequence (P28335 33-458): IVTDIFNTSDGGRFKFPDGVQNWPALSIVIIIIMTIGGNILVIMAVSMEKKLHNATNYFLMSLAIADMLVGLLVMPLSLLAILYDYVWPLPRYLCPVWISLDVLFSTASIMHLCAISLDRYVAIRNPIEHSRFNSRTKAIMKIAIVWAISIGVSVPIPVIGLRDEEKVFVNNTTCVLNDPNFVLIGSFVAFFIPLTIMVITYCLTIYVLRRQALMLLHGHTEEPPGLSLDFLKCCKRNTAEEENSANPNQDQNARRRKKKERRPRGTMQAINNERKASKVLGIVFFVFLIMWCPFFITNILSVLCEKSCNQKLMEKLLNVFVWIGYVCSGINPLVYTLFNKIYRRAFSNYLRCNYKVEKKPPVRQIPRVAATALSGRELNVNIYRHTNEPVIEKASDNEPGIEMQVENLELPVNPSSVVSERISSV
# Description: J. Neurochem. 69: 1449-1458, 1997]. […] SB242084 is used as positive control.
# adrenergic receptor α1B = molecular target: T6, adrenergic receptor α1B (Rattus norvegicus, UniProt P15823); experiment: radioligand binding to adrenergic receptor α1B ([3H] Prazosin)
# T6 construct: membrane species from rat liver (rat of Wistar breed) are prepared; from tissue; host or cells: rat (Wistar) liver membranes
# T6 sequence (P15823 1-515): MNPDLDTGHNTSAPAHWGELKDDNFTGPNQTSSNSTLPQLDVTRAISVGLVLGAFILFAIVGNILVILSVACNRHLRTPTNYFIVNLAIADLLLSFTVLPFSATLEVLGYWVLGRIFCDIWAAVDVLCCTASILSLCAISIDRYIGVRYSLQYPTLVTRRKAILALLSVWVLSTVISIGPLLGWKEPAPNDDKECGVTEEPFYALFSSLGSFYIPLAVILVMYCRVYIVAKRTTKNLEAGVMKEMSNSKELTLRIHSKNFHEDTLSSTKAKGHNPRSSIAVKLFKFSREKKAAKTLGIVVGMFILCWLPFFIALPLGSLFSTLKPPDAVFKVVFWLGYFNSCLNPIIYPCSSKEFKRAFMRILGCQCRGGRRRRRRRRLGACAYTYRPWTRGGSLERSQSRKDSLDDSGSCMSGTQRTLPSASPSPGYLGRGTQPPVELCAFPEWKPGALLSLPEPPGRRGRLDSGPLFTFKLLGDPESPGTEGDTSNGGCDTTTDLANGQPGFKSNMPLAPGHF
# Description: Species heterogeneity of hepatic α1A-, α1B-, and α1C-subtypes. Biochem Biophys Res Commun. 186:760-7676 1992]. […] Prazosin is used as positive control.
# adrenergic receptor α1A = molecular target: T7, adrenergic receptor α1A (Rattus norvegicus, UniProt P43140); experiment: radioligand binding to adrenergic receptor α1A ([3H] Prazosin)
# T7 construct: membrane species from rat submaxillary glands (rat of Wistar breed) are prepared; from tissue; host or cells: rat (Wistar) submaxillary gland membranes
# T7 sequence (P43140 1-466): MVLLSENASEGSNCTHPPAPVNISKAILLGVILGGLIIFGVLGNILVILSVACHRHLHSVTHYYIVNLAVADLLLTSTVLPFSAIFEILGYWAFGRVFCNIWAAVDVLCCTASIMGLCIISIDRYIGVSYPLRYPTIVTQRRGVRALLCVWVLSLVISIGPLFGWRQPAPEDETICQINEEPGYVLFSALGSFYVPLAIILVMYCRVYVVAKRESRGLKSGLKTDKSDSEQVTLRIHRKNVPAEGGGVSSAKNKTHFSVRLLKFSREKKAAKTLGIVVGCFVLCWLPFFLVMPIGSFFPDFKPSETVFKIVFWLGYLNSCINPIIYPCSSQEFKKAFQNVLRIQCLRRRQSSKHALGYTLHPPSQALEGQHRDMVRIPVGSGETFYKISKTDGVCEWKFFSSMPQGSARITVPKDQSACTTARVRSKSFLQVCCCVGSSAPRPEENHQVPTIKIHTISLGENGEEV
# Procedure: Determination of investigated compounds' binding to α1A receptor was carried out according to the method described in [Michel A D, Loury D N and Whiting R l. Identification of a single α1A-adrenoceptor corresponding to the α1A-subtype in rat submaxillary gland. Br J. Pharmacol. 98:883-889, 1989]. […] Prazosin is used as positive control.
# human α1D receptor = molecular target: T8, human α1D receptor (Homo sapiens, UniProt P25100); experiment: radioligand binding to adrenergic receptor α1D ([3H] Prazosin)
# T8 construct: expressed in transfected cells; host or cells: HEK-293
# T8 sequence (P25100 1-572): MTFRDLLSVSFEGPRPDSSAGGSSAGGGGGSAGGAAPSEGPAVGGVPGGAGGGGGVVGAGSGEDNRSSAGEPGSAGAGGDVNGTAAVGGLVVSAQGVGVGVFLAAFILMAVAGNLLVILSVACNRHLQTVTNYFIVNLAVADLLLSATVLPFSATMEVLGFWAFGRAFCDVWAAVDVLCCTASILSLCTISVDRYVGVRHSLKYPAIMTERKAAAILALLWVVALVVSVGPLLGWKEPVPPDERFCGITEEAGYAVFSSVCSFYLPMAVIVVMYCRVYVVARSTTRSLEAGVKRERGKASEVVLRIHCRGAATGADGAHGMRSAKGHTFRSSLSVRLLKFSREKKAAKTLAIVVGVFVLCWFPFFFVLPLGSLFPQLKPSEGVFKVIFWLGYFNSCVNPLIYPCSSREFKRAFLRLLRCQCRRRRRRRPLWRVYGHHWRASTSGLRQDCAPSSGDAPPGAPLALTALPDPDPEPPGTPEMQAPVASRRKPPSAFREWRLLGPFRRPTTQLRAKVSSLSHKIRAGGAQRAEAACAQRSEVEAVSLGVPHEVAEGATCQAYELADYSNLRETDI
# Description: 6-C. […] For this purpose sDNA of human α1D receptor is expressed in HEK-293 cells, as it was described in [T L Theroux, T A Esbenshade, R D Peavy and K P Minneman. Coupling efficiencies of human alpha 1-adrenergic receptor subtypes: titration of receptor density and responsiveness with inducible and repressible expression vectors. Mol. Pharmacol.; 50: 1376-1387, 1996]. […] Prazosin is used as positive control.
# human α2A receptor = molecular target: T9, human α2A receptor (Homo sapiens, UniProt P08913); experiment: radioligand binding to adrenergic receptor α2A ([3H] MK-912)
# T9 construct: expressed in transfected cells; host or cells: Sf9
# T9 sequence (P08913 1-465): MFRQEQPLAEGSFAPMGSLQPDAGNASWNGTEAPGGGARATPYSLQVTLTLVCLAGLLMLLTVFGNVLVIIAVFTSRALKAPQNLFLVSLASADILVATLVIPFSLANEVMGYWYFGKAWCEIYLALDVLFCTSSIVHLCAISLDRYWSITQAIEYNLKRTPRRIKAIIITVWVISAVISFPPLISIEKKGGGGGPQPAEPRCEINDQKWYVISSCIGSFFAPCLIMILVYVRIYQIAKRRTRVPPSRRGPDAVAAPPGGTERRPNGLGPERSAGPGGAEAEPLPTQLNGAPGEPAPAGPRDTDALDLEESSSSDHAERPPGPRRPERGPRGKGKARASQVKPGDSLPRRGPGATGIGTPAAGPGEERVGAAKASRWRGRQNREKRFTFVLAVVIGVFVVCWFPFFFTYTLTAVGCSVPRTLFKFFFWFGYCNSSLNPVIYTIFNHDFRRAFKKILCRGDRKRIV
# Description: J Pharmacol ExpTher. […] Yohimbine is used as positive control.
# T4 sequence (P41595 whole entry): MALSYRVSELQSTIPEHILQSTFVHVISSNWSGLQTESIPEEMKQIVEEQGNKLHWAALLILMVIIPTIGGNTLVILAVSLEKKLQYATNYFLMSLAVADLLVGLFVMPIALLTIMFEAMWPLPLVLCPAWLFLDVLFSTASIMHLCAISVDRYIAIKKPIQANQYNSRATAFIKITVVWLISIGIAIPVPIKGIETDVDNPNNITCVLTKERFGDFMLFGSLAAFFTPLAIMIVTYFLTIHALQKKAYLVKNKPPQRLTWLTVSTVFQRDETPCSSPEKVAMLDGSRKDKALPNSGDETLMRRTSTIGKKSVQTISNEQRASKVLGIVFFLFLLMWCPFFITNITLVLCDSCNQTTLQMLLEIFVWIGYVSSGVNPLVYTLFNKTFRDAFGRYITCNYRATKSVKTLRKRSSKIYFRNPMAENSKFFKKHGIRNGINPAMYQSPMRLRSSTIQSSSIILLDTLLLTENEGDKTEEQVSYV
# T2 sequence (P34969 whole entry): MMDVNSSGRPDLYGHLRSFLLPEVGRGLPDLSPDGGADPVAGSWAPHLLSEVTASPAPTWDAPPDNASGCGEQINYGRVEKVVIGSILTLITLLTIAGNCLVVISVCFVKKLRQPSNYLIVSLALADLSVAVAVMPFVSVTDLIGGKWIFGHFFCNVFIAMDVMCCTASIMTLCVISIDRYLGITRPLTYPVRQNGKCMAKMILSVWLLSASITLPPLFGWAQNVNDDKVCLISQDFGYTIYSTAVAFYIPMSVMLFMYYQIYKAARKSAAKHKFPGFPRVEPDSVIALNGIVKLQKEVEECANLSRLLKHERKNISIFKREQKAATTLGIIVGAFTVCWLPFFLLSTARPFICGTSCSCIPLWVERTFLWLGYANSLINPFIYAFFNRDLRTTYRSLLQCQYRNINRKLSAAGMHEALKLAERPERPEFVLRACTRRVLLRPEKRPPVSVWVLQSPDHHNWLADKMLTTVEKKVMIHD
# T1 sequence (P50406 whole entry): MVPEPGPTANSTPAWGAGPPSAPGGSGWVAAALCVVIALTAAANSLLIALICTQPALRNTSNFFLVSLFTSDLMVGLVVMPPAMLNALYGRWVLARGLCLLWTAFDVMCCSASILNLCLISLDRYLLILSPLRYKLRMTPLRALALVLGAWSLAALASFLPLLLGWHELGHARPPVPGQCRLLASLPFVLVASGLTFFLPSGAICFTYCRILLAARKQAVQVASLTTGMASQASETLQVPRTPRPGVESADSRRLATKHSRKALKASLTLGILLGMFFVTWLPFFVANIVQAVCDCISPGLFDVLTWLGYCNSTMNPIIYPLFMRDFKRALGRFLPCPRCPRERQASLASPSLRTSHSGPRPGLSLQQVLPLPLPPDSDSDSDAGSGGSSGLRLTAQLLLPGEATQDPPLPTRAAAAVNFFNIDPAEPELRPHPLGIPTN
smiles,measurement,setting,value
Cc1ccc2c(c1)c1c(n2CCc2ccc(F)cc2)CCN(C)C1.Cl [1.1.2(1-16)•HCl],5-HT6 % inhibition,[1],103%
same,5-HT7 % inhibition,human 5-HT7 receptor,95%
same,5-HT1A % inhibition,recombinant human 5-HT1A,37%
"Cc1ccc2c(c1)c1c(n2CC(O)c2ccccc2)CCN(C)C1 (centres unmarked) [1.1.2(1-10), 2,8-dimethyl-5-[(2-phenyl-2-hydroxy)ethyl]-1,2,3,4-tetrahydro-1H-pyrido[4,3-b]indole]",5-HT2B % inhibition,[2],79%
same,5-HT2C % inhibition,[3],96%
CN1CCc2c(c3cc(F)ccc3n2CC(O)c2ccccc2)C1 (centres unmarked) [1.1.2(1-9)],5-HT2B % inhibition,[2],50%
same,5-HT2C % inhibition,[3],89%
Cc1ccc2c(c1)c1c(n2CCc2ccc(C(F)(F)F)cc2)CCN(C)C1.Cl [1.1.2(1-18)•HCl],5-HT7 % inhibition,human 5-HT7 receptor,103%
same,5-HT1A % inhibition,recombinant human 5-HT1A,53%
CN1CCc2c(c3cc(F)ccc3n2C#Cc2ccccc2)C1 [1.1(2)],5-HT2B % inhibition,[2],92%
same,5-HT2C % inhibition,[3],100%
COc1ccc(CCn2c3c(c4cc(C)ccc42)CN(C)CC3)cc1.Cl [1.1.2(1-14)•HCl],5-HT6 % inhibition,[1],108%
same,5-HT7 % inhibition,human 5-HT7 receptor,100%
same,5-HT1A % inhibition,recombinant human 5-HT1A,57%
"Cc1ccc(CCn2c3c(c4cc(C)ccc42)CN(C)CC3)cc1 [1.1.2(1-3), 2,8-dimethyl-5-[2-(4-methylphenyl)-ethyl]-1,2,3,4-tetrahydro-1H-pyrido[4,3-b]indole]",IC50,adrenergic receptor α1B,17 nM
same,Ki,adrenergic receptor α1B,9.4 nM
same,IC50,adrenergic receptor α1A,46.7 nM
same,Ki,adrenergic receptor α1A,18.9 nM
same,IC50,human α1D receptor,61.5 nM
same,Ki,human α1D receptor,30.2 nM
same,IC50,human α2A receptor,4.72 nM
same,Ki,human α2A receptor,1.77 nM
CN1CCc2c(c3cc(F)ccc3n2Cc2ccccc2)C1.Cl [1.9(3)•HCl],5-HT7 % inhibition,human 5-HT7 receptor,81%
